The results in this text go back to patent US10577315B2, “Compositions and methods for treatment of prostate carcinoma” (Pellficure Pharmaceuticals, Inc., priority 2014, dated 2020).

This test concerns PTEN-P2/GFP prostate cancer cells. Description: Effect of 1,4-naphthoquinone analogs on PTEN-P2/GFP cell proliferation (WST-1 cell viability, 24 h). It is filed as cell-based. The note with it: Mus musculus, WST-1, medium with 10% FBS and DHT, read-out: PTEN-P2/GFP cell proliferation, percent of control. On the procedure:
Cells are grown in phenol red-free DMEM medium containing 10% FBS, 2 mM L-glutamine, 100 U/ml penicillin/100 μg/ml streptomycin, insulin-selenium-transferrin (5 μg/ml insulin), and DHT 10^−8M final. Androgen withdrawal is achieved by not adding DHT to the medium. Cells are maintained in a humidified incubator at 37° C. and 5% CO2. G418 (100 μg/ml) is added to maintain stable expression of H2B-GFP.
100 microliters of PTEN-P2/GFP prostate cancer cells were plated at a density of 8000 cells/well in 96-well plates (triplicates) in growing medium containing 10% Fetal Bovine Serum and DHT. The next day, increasing concentrations of a 1,4-naphthoquinone analog (diluted from 10 mM DMSO stock solutions) were added. DMSO used as solvent for all analogs, was kept constant through the 96-well plates. The control consisted of DMSO alone. The cells were subsequently incubated for 24 hours at 37° C. and 5% CO2 in normal cell growth conditions. Cell viability was assessed by adding 9 μL/well of WST-1 reagent (Clontech), which measured mitochondrial activity of live cells. […] The incubation time was 3 hours at 37° C. Optical density of the cell samples was measured at 460 nm, by using plate reader Spectra Max 250 (Molecular Devices). The drug was determined to be cytotoxic when OD values show an inverse correlation with analog concentrations. The results are shown in TABLES 3.1-3.4, FIGS. 2A-2E, and FIGS. 3A-3D.

For the compound `Cc1cccc(OC2=CC(=O)c3ccccc3C2=O)c1` [Analog F08, 2-(3-methylphenoxy)-1,4-naphthoquinone], the activity at 2 µM worked out at 102%, the activity at 3 µM was 101%, the activity at 4 µM worked out at 99.4% and the activity at 5 µM is 92.2%. Further, the activity at 6 µM is 83.9%, the activity at 7 µM came to 68.8%, the activity at 10 µM amounted to 30.8% and the activity at 15 µM amounted to 12.8%. The activity at 25 µM turned out to be 9.66%.

As for `O=C1C=C(Oc2ccc3ccccc3c2)C(=O)c2ccccc21` [Analog F09, 2-(naphthalene-2-yloxy)-1,4-naphthoquinone], the activity at 1.2 µM turned out to be 117%, the activity at 2.5 µM was determined as 114%, the activity at 5 µM was found to be 106% and the activity at 7.5 µM was determined as 70%. The activity at 10 µM came out at 28.7%, the activity at 15 µM stood at 1.97% and the activity at 20 µM is 3.09%.

As to `O=C1C=C(Oc2ccc(O)cc2)C(=O)c2ccccc21` [Analog F10, 2-(4-hydroxyphenoxy)-1,4-naphthoquinone], the activity at 2 µM was 98.6%, the activity at 3 µM turned out to be 95.4%, the activity at 4 µM was 91.2% and the activity at 5 µM is 82.8%. Also, the activity at 6 µM is 67.1%, the activity at 7 µM came out at 53.6%, the activity at 10 µM was determined as 25.2% and the activity at 15 µM came to 16.7%. Further, the activity at 25 µM worked out at 17.6%.

Turning to `CN(C)CCc1ccc(OC2=CC(=O)c3ccccc3C2=O)cc1` [Analog F11, 2-(4-(2-dimethylaminoethyl)phenoxy)-1,4-naphthoquinone], the activity at 2 µM turned out to be 99.6%, the activity at 3 µM was found to be 93.4%, the activity at 4 µM was 79.2% and the activity at 5 µM is 61.3%. Moreover, the activity at 6 µM is 46%, the activity at 7 µM was 36.4%, the activity at 10 µM came to 22.8% and the activity at 15 µM came to 12.3%. The activity at 25 µM came to 9.33%.

Regarding `O=C1C=C(Oc2ccc([N+](=O)[O-])cc2)C(=O)c2ccccc21` [Analog F12, 2-(4-nitrophenoxy)naphthalene-1,4-dione], the activity at 1.2 µM is 122%, the activity at 2.5 µM was found to be 118%, the activity at 5 µM was found to be 118% and the activity at 7.5 µM came to 117%. In addition, the activity at 10 µM stood at 115%, the activity at 15 µM came to 78.8% and the activity at 20 µM was found to be 8.27%.

For `O=C1C=C(Oc2ccc(Cl)cc2Cc2ccccc2)C(=O)c2ccccc21` [Analog F13, 2-(2-benzyl-4-chlorophenoxy)naphthalene-1,4-dione], the activity at 1.2 µM came to 129%, the activity at 2.5 µM came to 119%, the activity at 5 µM was 60.5% and the activity at 7.5 µM came to 17.5%. Further, the activity at 10 µM came out at 1.69%, the activity at 15 µM was 2.19% and the activity at 20 µM was determined as 2.53%.

On to `O=C1C=C(Oc2ccc(Cl)cc2)C(=O)c2ccccc21` [Analog F14, 2-(4-chlorophenoxy)naphthalene-1,4-dione], for which the activity at 1.2 µM came out at 100%, the activity at 2.5 µM amounted to 92.3%, the activity at 5 µM is 86.2% and the activity at 7.5 µM was 71%. Besides, the activity at 10 µM is 19.2%, the activity at 15 µM was 1.27% and the activity at 20 µM was 2.3%.

For the compound `Cc1cc(OC2=CC(=O)c3ccccc3C2=O)ccc1Cl` [Analog F15, 2-(4-chloro-3-methylphenoxy)naphthalene-1,4-dione], the activity at 1.2 µM is 95.6%, the activity at 2.5 µM came to 89%, the activity at 5 µM came to 97.1% and the activity at 7.5 µM was found to be 55.5%. For the same compound, the activity at 10 µM turned out to be 4.3%, the activity at 15 µM turned out to be 1.67% and the activity at 20 µM is 2.4%.

Turning to `COc1ccc(OC2=CC(=O)c3ccccc3C2=O)c(Cl)c1` [Analog F16, 2-(2-chloro-4-methoxyphenoxy)naphthalene-1,4-dione], the activity at 1.2 µM is 92.8%, the activity at 2.5 µM was found to be 97%, the activity at 5 µM is 82.5% and the activity at 7.5 µM came to 12%. Besides, the activity at 10 µM amounted to 0.73%, the activity at 15 µM is 1.43% and the activity at 20 µM came out at 2.3%.

Regarding `O=C1C=C(Oc2cc(F)cc(F)c2)C(=O)c2ccccc21` [Analog F17, 2-(3,5-difluorophenoxy)naphthalene-1,4-dione], the activity at 1.2 µM was 97%, the activity at 2.5 µM came out at 91.8%, the activity at 5 µM worked out at 88.7% and the activity at 7.5 µM was determined as 78.2%. The activity at 10 µM amounted to 71.5%, the activity at 15 µM turned out to be 1.07% and the activity at 20 µM was 2.53%.

In the case of `O=C1C(Br)=C(Oc2ccccc2)C(=O)c2ccccc21` [Analog F18, 2-bromo-3-phenoxy-1,4-naphthoquinone], the activity at 2 µM was determined as 96.6%, the activity at 3 µM was 92.5%, the activity at 4 µM amounted to 85.5% and the activity at 5 µM is 69.8%. Besides, the activity at 6 µM worked out at 53.5%, the activity at 7 µM stood at 45%, the activity at 10 µM came to 20.3% and the activity at 15 µM was determined as 11.1%. Besides, the activity at 25 µM turned out to be 9.64%.

Turning to `COC(=O)c1ccccc1OC1=C(Br)C(=O)c2ccccc2C1=O` [Analog F19, methyl 3-bromo-1,4-naphthoquinon-2-yl-salicylate], the activity at 2 µM was determined as 99.5%, the activity at 3 µM came out at 94.3%, the activity at 4 µM was found to be 85.2% and the activity at 5 µM was determined as 81%. Also, the activity at 6 µM is 68.2%, the activity at 7 µM came out at 59.3%, the activity at 10 µM was 32.3% and the activity at 15 µM came out at 20.1%. The activity at 25 µM was 12.1%.

With `O=C1C(Oc2ccccc2)=C(Oc2ccccc2)C(=O)c2ccccc21` [Analog F21, 2,3-diphenoxy-1,4-naphthoquinone], the activity at 2 µM was 102%, the activity at 3 µM is 92.9%, the activity at 4 µM came out at 92.9% and the activity at 5 µM amounted to 92.9%. The activity at 6 µM came out at 61.8%, the activity at 7 µM was determined as 54.4%, the activity at 10 µM was 26.1% and the activity at 15 µM stood at 16.2%. For the same compound, the activity at 25 µM was 16.3%.

With `O=C1C(Oc2c(F)cc(F)cc2F)=C(Oc2c(F)cc(F)cc2F)C(=O)c2ccccc21` [Analog F22, 2,3-bis(2,4,6-trifluorophenoxy)naphthalene-1,4-dione], the activity at 1.2 µM stood at 91.2%, the activity at 2.5 µM stood at 103%, the activity at 5 µM worked out at 105% and the activity at 7.5 µM was 107%. The activity at 10 µM came to 104%, the activity at 15 µM stood at 105% and the activity at 20 µM was found to be 101%.

Consider `O=C1C(Oc2ccc(O)cc2)=C(Oc2ccc(O)cc2)C(=O)c2ccccc21` [Analog F24, 2,3-bis(4-hydroxyphenoxy)-1,4-naphthoquinone], for which the activity at 1.2 µM worked out at 111%, the activity at 2.5 µM turned out to be 87.1%, the activity at 5 µM is 57.6% and the activity at 7.5 µM came to 30.9%. In addition, the activity at 10 µM came to 8.07%, the activity at 15 µM turned out to be 6.73% and the activity at 20 µM was found to be 3.73%.

Turning to `O=C(NCCCl)Oc1ccc(OC2=C(Oc3ccc(OC(=O)NCCCl)cc3)C(=O)c3ccccc3C2=O)cc1` [Analog F34, 2,3-bis(4-((2-chloroethyl)carbamoyloxy)phenoxy)-1,4-naphthoquinone], the activity at 2 µM is 74.5%, the activity at 3 µM stood at 49.6%, the activity at 4 µM was determined as 35.8% and the activity at 5 µM is 26%. In addition, the activity at 6 µM came to 19.3%, the activity at 7 µM was determined as 17.2%, the activity at 10 µM turned out to be 14.2% and the activity at 15 µM came to 14.2%. Besides, the activity at 25 µM is 14.5%.
